Experimental data as given in ChEMBL document CHEMBL2203226, “PPAR-γ agonistic metabolites from the ascidian Herdmania momus” (J Nat Prod, 2012).
Converted amounts (≈) assume the structure as drawn. The source made the active and inactive calls. The calls are words filed in the database; no cut-off is given here.

Key:
[1] = target: T1, Peroxisome proliferator-activated receptor gamma (Homo sapiens) (UniProt P37231); assay: Agonist activity at full length human PPARgamma transfected in rat Ac2F cells cotransfected with PPRE-TK-luc assessed as induction of transactivation activity at 10 ug/ml by luciferase reporter gene assay relative to control; type: functional, cell-based
T1 sequence (whole entry): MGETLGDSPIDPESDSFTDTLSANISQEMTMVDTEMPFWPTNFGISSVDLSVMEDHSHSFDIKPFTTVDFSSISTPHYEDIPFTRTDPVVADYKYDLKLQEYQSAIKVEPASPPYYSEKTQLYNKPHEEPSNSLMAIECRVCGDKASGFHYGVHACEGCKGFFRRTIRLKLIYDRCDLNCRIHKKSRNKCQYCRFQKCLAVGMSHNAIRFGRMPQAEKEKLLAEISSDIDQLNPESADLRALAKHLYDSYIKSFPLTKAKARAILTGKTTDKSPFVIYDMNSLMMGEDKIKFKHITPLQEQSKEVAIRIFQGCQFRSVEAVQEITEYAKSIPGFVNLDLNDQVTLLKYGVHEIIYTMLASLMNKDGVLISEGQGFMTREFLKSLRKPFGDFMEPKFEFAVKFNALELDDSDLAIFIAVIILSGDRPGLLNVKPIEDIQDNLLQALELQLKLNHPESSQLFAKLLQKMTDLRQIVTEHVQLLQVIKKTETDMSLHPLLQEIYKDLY

[2] = target: T1, Peroxisome proliferator-activated receptor gamma (Homo sapiens); assay: Agonist activity at full length human PPARgamma transfected in rat Ac2F cells cotransfected with PPRE-TK-luc assessed as induction of transactivation activity at 1 ug/ml by luciferase reporter gene assay relative to control; type: functional, cell-based
[3] = Antioxidant activity assessed as radical scavenging activity by NBT reduction assay; type: functional
[4] = test system: Radical scavenging activity; assay: Antioxidant activity assessed as DPPH radical scavenging activity; type: functional

Row | Activity [1] | Activity [2] | IC50 [3] [µg/mL] | IC50 [4] [µg/mL] | Compound
1 | Active | Active | – | – | O=C(N[C@H](Cc1c[nH]cn1)C(=O)O)C(=O)c1c[nH]c2cc(O)ccc12
2 | Active | Active | – | – | N=C(N)NCCC[C@@H](NC(=O)C(=O)c1c[nH]c2cc(O)ccc12)C(=O)O
3 | – | – | 1.78 (≈ 5.91 µM) | 2.31 (≈ 7.67 µM) | N[C@@H](Cc1ccc(OC(=O)c2ccc(O)cc2)cc1)C(=O)O
4 | Active | Active | – | – | N[C@H](CCCCNC(=O)C(=O)c1c[nH]c2cc(O)ccc12)C(=O)O
